Laboratory results: patent publication US12612410B2 (CHILDREN'S HOSPITAL MEDICAL CENTER, priority 2020, dated 2026)

Columns and labels:
Format in all cases: cell-based
FLT3 = target: T1, FLT3 (Homo sapiens, UniProt P36888); assay: Reaction Biology NanoBRET target engagement assay, FLT3; settings: transfected HEK-293 cells
T1 sequence (P36888 27-993): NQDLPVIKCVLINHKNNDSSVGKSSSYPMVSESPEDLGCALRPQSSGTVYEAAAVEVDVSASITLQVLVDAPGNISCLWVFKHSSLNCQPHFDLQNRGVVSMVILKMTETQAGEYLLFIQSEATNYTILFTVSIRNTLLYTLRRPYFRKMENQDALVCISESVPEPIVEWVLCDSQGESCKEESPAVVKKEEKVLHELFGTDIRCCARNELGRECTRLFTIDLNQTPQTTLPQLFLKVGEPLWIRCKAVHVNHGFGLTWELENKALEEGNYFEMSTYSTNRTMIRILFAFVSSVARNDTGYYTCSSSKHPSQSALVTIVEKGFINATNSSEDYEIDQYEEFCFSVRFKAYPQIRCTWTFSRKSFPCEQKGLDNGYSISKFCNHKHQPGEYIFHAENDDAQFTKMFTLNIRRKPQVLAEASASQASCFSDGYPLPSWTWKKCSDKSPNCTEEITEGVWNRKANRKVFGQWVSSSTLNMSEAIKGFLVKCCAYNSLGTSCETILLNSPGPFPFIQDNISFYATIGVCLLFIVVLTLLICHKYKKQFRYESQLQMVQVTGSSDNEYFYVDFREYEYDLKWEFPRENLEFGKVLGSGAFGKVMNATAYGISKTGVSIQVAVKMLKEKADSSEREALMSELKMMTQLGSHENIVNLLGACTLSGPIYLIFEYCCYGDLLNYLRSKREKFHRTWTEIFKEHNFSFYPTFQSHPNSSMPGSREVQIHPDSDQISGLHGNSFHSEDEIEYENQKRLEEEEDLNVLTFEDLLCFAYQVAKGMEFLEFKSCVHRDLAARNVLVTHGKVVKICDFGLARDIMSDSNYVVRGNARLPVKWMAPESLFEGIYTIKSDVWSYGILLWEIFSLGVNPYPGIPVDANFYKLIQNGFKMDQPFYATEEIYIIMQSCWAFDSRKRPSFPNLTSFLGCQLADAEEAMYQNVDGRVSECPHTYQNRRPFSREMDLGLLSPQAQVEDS
Source text: The NanoBRET assay measures kinase engagement in real time in the context of the intact cell. Unlike the previously described biochemical kinase assay methodologies in Examples 26-27, the NanoBRET assay measures the binding and activity characteristics under equilibrium conditions using full-length kinases in the presence of cellular concentrations of ATP in live, uncompromised cells. As such, the assay provides a more relevant assessment of kinase potency and selectivity that would be expected to be observed in the native cellular environment, where potency is often considerably lower than that observed in the isolated biochemical assays (Vasta, J. D. et al., (2018) Cell Chem. Biol. 25, 206-214). The assay uses a Kinase-NanoLuc® fusion vector expressing a kinase protein to which a luciferase tag has been added, a cell-permeant fluorescent NanoBRET™ tracer, a NanoLuc® substrate, and an extracellular NanoLuc® inhibitor. Upon expression of the luciferase-tagged kinase, cells will produce a strong BRET signal only in the presence of the NanoBRET™ tracer. The extracellular NanoLuc® inhibitor ensures that the BRET signal observed emanates only from live cells. Because the BRET signal has tight distance constraints, addition of the test compound will decrease the BRET signal if the compound competes with the NanoBRET™ tracer for binding to the kinase domain. Under the appropriate tracer conditions established by the manufacturer, quantitative intracellular affinity and relative potency can then be determined using Mass Action model equations.
HEK-293 cells were purchased from ATCC. FuGENEHD Transfection Reagent, Kinase-NanoLucfusion plasmids, Transfection Carrier DNA, NanoBRETTracers and dilution buffer, NanoBRETNano-Glo Substrate, Extracellular NanoLucInhibitor were obtained from Promega.
Assays were conducted following Promega assay protocol with some modifications. HEK-293 Cells were transiently transfected with Kinase-NanoLucFusion Vector DNA by FuGENEHD Transfection Reagent. Testing compounds were delivered into 384 well assay plate by Echo 550 (Labcytelnc, Sunnyvale, CA). Transfected cells were harvested and mixed with NanoBRETTracer Reagent and dispensed into 384 well plates and incubated at 37° C. in 5% CO2 cell culture incubator for 1 hour. The NanoBRETNano-Glo Substrate plus Extracellular NanoLucInhibitor Solution were added into the wells of the assay plate and incubated for 2-3 minutes at room temperature. The donor emission wavelength (460 nm) and acceptor emission wavelength (600 nm) were measured in the EnVisionplate reader. The BRET Ratios were calculated. BRET Ratio=[(Acceptor sample÷Donor sample)−(Acceptor no-tracer control÷Donor no-tracer control)]. The IC50 values of compounds were calculated with Prism GraphPad program.
NanoBRET™ Target Engagement Assay Protocol
1. Transient Transfection of HEK-293 Cells NanoLuc® Fusion Vector DNA
• 1). Cultivate HEK-293 cells (70-80% confluence) appropriately prior to assay. Trypsinize and collect HEK-293 cells. • 2). Prepare lipid: DNA complexes as follows: • a. Prepare a […] solution of DNA in Opti-MEM without serum that consists of the following ratios of carrier DNA and DNA encoding NanoLuc® fusion. 9.0 µg/mL of Transfection Carrier DNA, […] of NanoLuc fusion vector DNA and 1 mL of Opti-MEM without phenol red. Mix thoroughly. • b. Add 30 l of FuGENE HD Transfection Reagent into each milliliter of DNA mixture to form lipid: DNA complex. • c. Mix by inversion 10 times. • d. Incubate at ambient temperature for 20 minutes to allow complexes to form. • 3). In a sterile, conical tube, mix 1 part of lipid: DNA complex with 20 parts of HEK-293 cells in suspension. Mix gently by inversion 5 times. • 4). Dispense cells+lipid: DNA complex into a sterile tissue culture dish and incubate for 22-24 hours. 2. Addition of Test Compounds (dry plate shooting)
Each test compound is delivered from the compound source plate to the wells of 384-well white NBS plate by Echo 550.
3. […]

NF-κB [1] = assay: NF-kB SEAP reporter assay in THP-1-Blue NF-κB cells, Pam3CSK4 stimulation; settings: Pam3CSK4 1 ng/mL, read-out: NF-κB Pam3SCK4 IC50
Procedure: (§1) THP-1-Blue NF-xB cells (InvivoGen) carrying a stable integrated NF-κB-inducible secreted embryonic alkaline phosphatase (SEAP) reporter construct were plated at a concentration of 1×10^5 cells per well. The cells were stimulated with Pam3CSK4 (1 ng/mL) or hIL1B (1 ng/mL). After 10-20 minutes, the cells were then treated with vehicle (DMSO) or serial dilutions of the test compounds (10 doses tested for each test compound, with a 1:10 dilution series starting at 1 μM or 3 μM) with a final volume of 200 μL for 24 hours at 37° C. After 24 hours, the cells were centrifuged and 20 μL supernatant was incubated with 180 μL QUANTI-Blue reagent at 37° C. for 30-60 minutes. The levels of NF-κB-induced was measured in a microplate reader at 620 nm.

NF-κB [2] = assay: NF-kB SEAP reporter assay in THP-1-Blue NF-κB cells, hIL1B stimulation; settings: hIL1B 1 ng/mL, read-out: NF-κB IL1B IC50
Procedure: as §1

Row | Compound | IC50 (FLT3) | also measured
1 | O=C1CCCN1c1cn2c(-c3nc(N[C@@H]4CCCNC4)c(F)cc3F)cnc2cn1 [Compound 108, (R)-1-(3-(3,5-difluoro-6-(piperidin-3-ylamino)pyridin-2-yl)imidazo[1,2-a]pyrazin-6-yl)pyrrolidin-2-one] | 0.031 µM | 
2 | CC(C)(C)c1cn2c(-c3nc(N[C@H]4CNCC[C@@H]4F)c(F)cc3F)cnc2cn1 [Compound 127, 6-(6-(tert-butyl)imidazo[1,2-a]pyrazin-3-yl)-3,5-difluoro-N-((3S,4S)-4-fluoropiperidin-3-yl)pyridin-2-amine] | 0.016 µM | 
3 | CC(O)(c1cn2c(-c3cccc(N[C@H]4CNC[C@@H]4F)n3)cnc2cn1)C(F)(F)F (single isomer, unassigned) [Compound 77] | 0.277 µM | 
4 | FC(F)c1cn2c(-c3cccc(N[C@H]4CNC[C@@H]4F)n3)cnc2cn1 [Compound 16, 6-(6-(difluoromethyl)imidazo[1,2-a]pyrazin-3-yl)-N-((3S,4S)-4-fluoropyrrolidin-3-yl)pyridin-2-amine] | 0.021 µM | IC50 (NF-κB [1]; 24 h): 0.011 µM; IC50 (NF-κB [2]; 24 h): 0.005 µM
5 | CC(C)(O)c1cn2c(-c3nc(N[C@H]4CNCC[C@@H]4F)c(F)cc3F)cnc2cn1 [Compound 35, 2-(3-(3,5-difluoro-6-(((3S,4S)-4-fluoropiperidin-3-yl)amino)pyridin-2-yl)imidazo[1,2-a]pyrazin-6-yl)propan-2-ol] | 0.216 µM | IC50 (NF-κB [1]; 24 h): 0.023 µM; IC50 (NF-κB [2]; 24 h): 0.088 µM
6 | O=C1CCCN1c1cn2c(-c3nc(N[C@H]4CNCC[C@@H]4F)c(F)cc3F)cnc2cn1 [Compound 107, 1-[3-[3,5-difluoro-6-[[(3S,4S)-4-fluoro-3-piperidyl]amino]-2-pyridyl]imidazo[1,2-a]pyrazin-6-yl]pyrrolidin-2-one] | 0.0009 µM | IC50 (NF-κB [1]; 24 hours): 0.037 µM; IC50 (NF-κB [2]; 24 hours): 0.357 µM
7 | CC1(c2cn3c(-c4cccc(N[C@H]5CNCC56CC6)n4)cnc3cn2)CC1 [Compound 5, (R)-N-(6-(6-(1-methylcyclopropyl)imidazo[1,2-a]pyrazin-3-yl)pyridin-2-yl)-5-azaspiro[2.4]heptan-7-amine] | < 0.0005 µM | 
8 | CC1(c2cn3c(-c4cccc(N[C@@H]5CCNC5)n4)cnc3cn2)CC1 [Compound 3, (R)-6-(6-(1-methylcyclopropyl)imidazo[1,2-a]pyrazin-3-yl)-N-(pyrrolidin-3-yl)pyridin-2-amine] | 0.003 µM | 
9 | CC(C)(O)c1cn2c(-c3nc(N[C@@H]4CCCNC4)c(F)cc3F)cnc2cn1 [Compound 34, (R)-2-(3-(3,5-difluoro-6-(piperidin-3-ylamino)pyridin-2-yl)imidazo[1,2-a]pyrazin-6-yl)propan-2-ol] | 0.177 µM | 
10 | Cn1cc(-c2cn3c(-c4cccc(N[C@@H]5CCCNC5)n4)cnc3cn2)cn1 [Compound 43, (R)-6-(6-(1-methyl-1H-pyrazol-4-yl)imidazo[1,2-a]pyrazin-3-yl)-N-(piperidin-3-yl)pyridin-2-amine] | 0.073 µM | 
11 | O=C1NCCN1c1cn2c(-c3cccc(N[C@H]4CNCC[C@@H]4F)n3)cnc2cn1 [Compound 118, 1-(3-(6-(((3S,4S)-4-fluoropiperidin-3-yl)amino)pyridin-2-yl)imidazo[1,2-a]pyrazin-6-yl)imidazolidin-2-one] |  | IC50 (NF-κB [1]; 24 h): 0.101 µM; IC50 (NF-κB [2]; 24 h): 0.406 µM
12 | CC(C)(C)c1cn2c(-c3nc(N[C@H]4CNC[C@@H]4F)c(F)cc3F)cnc2cn1 [Compound 125] | 0.937 µM | 
13 | CC(C)(C)c1cn2c(-c3cccc(N[C@H]4CNCC[C@@H]4F)n3)cnc2cn1 [Compound 130, 6-(6-(tert-butyl)imidazo[1,2-a]pyrazin-3-yl)-N-((3S,4S)-4-fluoropiperidin-3-yl)pyridin-2-amine] | 0.011 µM | 
14 | FC(F)COc1cn2c(-c3cccc(N[C@H]4CNC[C@@H]4F)n3)cnc2cn1 [Compound 58, 6-(6-(2,2-difluoroethoxy)imidazo[1,2-a]pyrazin-3-yl)-N-((3S,4S)-4-fluoropyrrolidin-3-yl)pyridin-2-amine] | 0.052 µM | 
15 | CC(C)(O)c1cn2c(-c3nc(N[C@H]4CNC[C@@H]4F)c(F)cc3F)cnc2cn1 [Compound 33, 2-(3-(3,5-difluoro-6-(((3S,4S)-4-fluoropyrrolidin-3-yl)amino)pyridin-2-yl)imidazo[1,2-a]pyrazin-6-yl)propan-2-ol] | 1.5 µM | 
16 | CC(C)(O)c1cn2c(-c3cccc(N[C@@H]4CCCNC4)n3)cnc2cn1 [Compound 30, (R)-2-(3-(6-(piperidin-3-ylamino)pyridin-2-yl)imidazo[1,2-a]pyrazin-6-yl)propan-2-ol] |  | IC50 (NF-κB [1]; 24 hours): 0.028 µM; IC50 (NF-κB [2]; 24 hours): 0.04 µM
17 | CC(O)(c1cn2c(-c3cccc(N[C@H]4CNC[C@@H]4F)n3)cnc2cn1)C(F)(F)F (single isomer, unassigned) [Compound 78] | 0.04 µM | 
18 | CC(C)(C)c1cn2c(-c3nc(N[C@@H]4CCCNC4)c(F)cc3F)cnc2cn1 [Compound 126, (R)-6-(6-(tert-butyl)imidazo[1,2-a]pyrazin-3-yl)-3,5-difluoro-N-(piperidin-3-yl)pyridin-2-amine] | 0.008 µM | 
19 | FC(F)(F)COc1cn2c(-c3cccc(N[C@@H]4CCNC4)n3)cnc2cn1 [Compound 38, (R)-N-(pyrrolidin-3-yl)-6-(6-(2,2,2-trifluoroethoxy)imidazo[1,2-a]pyrazin-3-yl)pyridin-2-amine] | 0.012 µM | 
